From patent publication US12060438B2, “Cyclic peptide compounds and methods of use thereof” (MODULATION THERAPEUTICS, INC., priority 2018, dated 2024)
Entries after “also recorded” stand apart in the source; their conditions may differ. Starred links: 1 amine or outer side, 2 acyl side, 3 side chain; linkers in the order of their positions; H or OH if unused. Positions of bridges follow the written chain, without caps; N, C: chain ends. Non-standard residues stand in square brackets, D forms with d. Residues, ends and D or L forms follow the SMILES beside them. *: point of attachment. dProlinol(O-CH2CO) = O=C(COC[C@H]1CCCN1[*:1])[*:2]; N(2-Aminoethyl)Gly = O=C(CN(CCN[*:3])[*:1])[*:2]; X1 = N[C@@H](CS)C(=O)NCCCS(=O)(=O)*; Nle = CCCC[C@H](N)C(=O)O

System: U266 myeloma cell line
Experiment: Cell death in U266 myeloma cell line (Dapi dead / Fluo-4 live staining, imaging)
Format: cell-based
Conditions: Dapi for dead cells, Fluo-4 for live cells, imaged at 6 hours, n=3, compared with Compound A (FIG. 1)
Procedure: Compound 2 was tested alongside Compound A and cell death was measured in a U266 myeloma cell line. Dapi staining was used for detection of dead cells and Fluo-4 was used for staining live cells. Cells were then imaged at 6 hours using a Cytation 5 Biotek imaging plate reader.

With `CCCC[C@@H]1NC(=O)CN(S(=O)(=O)CCCNC(=O)[C@@H](N)CS)CCNC(=O)[C@H](CCCCN)NC(=O)[C@H](CC(C)C)NC(=O)[C@H](CCCCN)NC(=O)[C@H](CC(C)C)NC(=O)[C@H](CCCCN)NC(=O)COC[C@H]2CCCN2C(=O)[C@H](Cc2c[nH]c3ccccc23)NC(=O)[C@H](C)NC(=O)[C@H](C(C)C)NC(=O)[C@H](C(C)C)NC1=O` [Compound 2] (X1-[N(2-Aminoethyl)Gly][Nle]VVAW[dProlinol(O-CH2CO)]KLKLK; lactam 1-C) the “potency (cell death)” value was “increased potency relative to Compound A; also recorded: more potency compared to Compound A”.
